According to patent publication US20080286215A1, “Method of Preventing Oral Staining” (priority 2005, published 2008):
Read-outs that look alike come from different tables or passages of the source.

Legend:
[1] = seven-day twice-daily mouthwash swilling, staining of teeth and tongue; format: in vivo; conditions: 0.2% mouthwash swilled twice daily for seven days
Experimental: FIG. 1 panel B illustrates staining of the teeth caused when contacted over a seven-day period with Chlorhexidine 0.2% twice daily for one minute (panel A is a control showing seven days rinsing with Delmopinol 0.2% twice daily 10 ml for one minute);
FIG. 2 panel B illustrates staining of the tongue when contacted over a seven day period with Chlorhexidine 0.2% twice daily for one minute (panel A is a control showing seven days rinsing with Delmopinol 0.2% twice daily 10 ml for one minute); and
A subject swilled their mouth twice daily with a 0.2% chlorhexidine mouthwash for seven days.
As a separate control, the subject swilled their mouth twice daily with a 0.2% delmopinol mouthwash for seven days.

[2] = prolonged use, some subjects, noticed by dentists in some studies; cited from earlier work
[3] = removal of chlorhexidine staining by a single one-minute brushing of the teeth; format: in vivo; conditions: subject with staining after seven days of chlorhexidine, brushed once, toothbrush soaked in 0.2% mouthwash
Excerpt: FIG. 3 illustrates the removal of Chlorhexidine stains seen in FIG. 1(B) by brushing the teeth for one minute with a toothbrush that has been soaked in 0.2% delmopinol. The subject with chlorhexidine staining (after the seven day usage of chlorhexidine) brushed their teeth once, for one minute, using a toothbrush soaked in a 0.2% delmopinol mouthwash.

| staining of the teeth [1] | staining of the tongue [1] | SMILES | staining of the teeth [2] | removal of chlorhexidine staining of the teeth [3] |
| --- | --- | --- | --- | --- |
| characteristic staining of the teeth | the tongue was also stained | [H]/N=C(\N/C(=N/[H])NCCCCCCNC(=N)NC(=N)Nc1ccc(Cl)cc1)Nc1ccc(Cl)cc1 [chlorhexidine, reference compound] | – | – |
| No staining was observed | No staining was observed | CCCC(CCC)CCCC1COCCN1CCO (stereo not drawn) [delmopinol, 3-(4-propyl-heptyl)-4-(2-hydroxyethyl)morpholine] | mild staining of the teeth | removed the staining of the teeth |
